Assay results: PubChem BioAssay AID1963843 (Molecular Pharmacology Branch, DTP, NCI, 2024)

Test system: 616215-338-R-J1-PDC complex spheroid viability
Assay: Anticancer human tumor 616215-338-R-J1-PDC patient-derived colon adenocarcinoma cell line growth inhibition [POLQ]
Details: for IC50: curve of first compound; for viability, T/C: stronger effect = lower value
In short: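 Patient-derived tumour cells were co-cultured with HUVEC and mesenchymal stem cells as multicellular spheroids at 37 °C. They were treated with POLQ inhibitors (novobiocin, ART-558, RP6685) alone or combined with other agents. Top concentrations were at or near clinical Cmax (otherwise 10 microM; SN-38 at 1 microM), decreasing in half-log steps.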

[1] = second compound 0.0316 µM, first compound 0.00316 µM
[2] = second compound 0.0316 µM, first compound 0.01 µM
[3] = second compound 0.0316 µM, first compound 0.0316 µM
[4] = second compound 0.0316 µM, first compound 0.1 µM
[5] = second compound 0.0316 µM, first compound 0.316 µM
[6] = second compound 0.0316 µM, first compound 1 µM
[7] = second compound 0.1 µM, first compound 0.00316 µM
[8] = second compound 0.1 µM, first compound 0.01 µM
[9] = second compound 0.1 µM, first compound 0.0316 µM
[10] = second compound 0.1 µM, first compound 0.1 µM
[11] = second compound 0.1 µM, first compound 0.316 µM
[12] = second compound 0.1 µM, first compound 1 µM
[13] = second compound 0.316 µM, first compound 0.00316 µM
[14] = second compound 0.316 µM, first compound 0.01 µM
[15] = second compound 0.316 µM, first compound 0.0316 µM
[16] = second compound 0.316 µM, first compound 0.1 µM
[17] = second compound 0.316 µM, first compound 0.316 µM
[18] = second compound 0.316 µM, first compound 1 µM
[19] = second compound 1 µM, first compound 0.00316 µM
[20] = second compound 1 µM, first compound 0.01 µM
[21] = second compound 1 µM, first compound 0.0316 µM
[22] = second compound 1 µM, first compound 0.1 µM
[23] = second compound 1 µM, first compound 0.316 µM
[24] = second compound 1 µM, first compound 1 µM
[25] = second compound 3.16 µM, first compound 0.00316 µM
[26] = second compound 3.16 µM, first compound 0.01 µM
[27] = second compound 3.16 µM, first compound 0.0316 µM
[28] = second compound 3.16 µM, first compound 0.1 µM
[29] = second compound 3.16 µM, first compound 0.316 µM
[30] = second compound 3.16 µM, first compound 1 µM
[31] = second compound 10 µM, first compound 0.00316 µM
[32] = second compound 10 µM, first compound 0.01 µM
[33] = second compound 10 µM, first compound 0.0316 µM
[34] = second compound 10 µM, first compound 0.1 µM
[35] = second compound 10 µM, first compound 0.316 µM
[36] = second compound 10 µM, first compound 1 µM
[37] = second compound 0.0316 µM, first compound 3.16 µM
[38] = second compound 0.0316 µM, first compound 10 µM
[39] = second compound 0.1 µM, first compound 3.16 µM
[40] = second compound 0.1 µM, first compound 10 µM
[41] = second compound 0.316 µM, first compound 3.16 µM
[42] = second compound 0.316 µM, first compound 10 µM
[43] = second compound 1 µM, first compound 3.16 µM
[44] = second compound 1 µM, first compound 10 µM
[45] = second compound 3.16 µM, first compound 3.16 µM
[46] = second compound 3.16 µM, first compound 10 µM
[47] = second compound 10 µM, first compound 3.16 µM
[48] = second compound 10 µM, first compound 10 µM
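Also: spheroids exposed to compounds for one week before readout.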
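For viability, T/C in this document: percent viability relative to DMSO vehicle wells taken as 100%.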

**Q.** What does the source list for C=CCn1c(=O)c2cnc(Nc3ccc(N4CCN(C)CC4)cc3)nc2n1-c1cccc(C(C)(C)O)n1 + COC1C(OC(N)=O)C(O)C(Oc2ccc3c(O)c(NC(=O)c4ccc(O)c(CC=C(C)C)c4)c(=O)oc3c2C)OC1(C)C?
**A.** IC50 (second compound 0.0316 µM): > 1000 nM; IC50 (second compound 0.1 µM): > 1000 nM; IC50 (second compound 0.316 µM): > 1000 nM; IC50 (second compound 1 µM): > 1000 nM; IC50 (second compound 3.16 µM): > 1000 nM; IC50 (second compound 10 µM): > 1000 nM; viability, T/C [1]: 102%; viability, T/C [2]: 97.8%; viability, T/C [3]: 97.2%; viability, T/C [4]: 113%; viability, T/C [5]: 97.8%; viability, T/C [6]: 91.8%; viability, T/C [7]: 105%; viability, T/C [8]: 101%; viability, T/C [9]: 89.2%; viability, T/C [10]: 103%; viability, T/C [11]: 95.3%; viability, T/C [12]: 55.8%; viability, T/C [13]: 94.3%; viability, T/C [14]: 106%; viability, T/C [15]: 101%; viability, T/C [16]: 97.8%; viability, T/C [17]: 95.2%; viability, T/C [18]: 59.4%; viability, T/C [19]: 105%; viability, T/C [20]: 94.5%; viability, T/C [21]: 101%; viability, T/C [22]: 103%; viability, T/C [23]: 90.7%; viability, T/C [24]: 61.5%; viability, T/C [25]: 93.8%; viability, T/C [26]: 104%; viability, T/C [27]: 100%; viability, T/C [28]: 98.2%; viability, T/C [29]: 93.9%; viability, T/C [30]: 61.4%; viability, T/C [31]: 105%; viability, T/C [32]: 100%; viability, T/C [33]: 98.3%; viability, T/C [34]: 103%; viability, T/C [35]: 87.7%; viability, T/C [36]: 67.3%

**Q.** What does the source list for CCc1c2c(nc3ccc(O)cc13)-c1cc3c(c(=O)n1C2)COC(=O)[C@]3(O)CC + COC1C(OC(N)=O)C(O)C(Oc2ccc3c(O)c(NC(=O)c4ccc(O)c(CC=C(C)C)c4)c(=O)oc3c2C)OC1(C)C?
**A.** IC50 (second compound 0.0316 µM): 93.7 nM; IC50 (second compound 0.1 µM): 87.2 nM; IC50 (second compound 0.316 µM): 92.6 nM; IC50 (second compound 1 µM): 72.1 nM; IC50 (second compound 3.16 µM): 49.3 nM; IC50 (second compound 10 µM): 30.7 nM; viability, T/C [1]: 110%; viability, T/C [2]: 87.6%; viability, T/C [3]: 70.6%; viability, T/C [4]: 49.2%; viability, T/C [5]: 30.4%; viability, T/C [6]: 20.2%; viability, T/C [7]: 103%; viability, T/C [8]: 95.4%; viability, T/C [9]: 73.5%; viability, T/C [10]: 45.8%; viability, T/C [11]: 30.1%; viability, T/C [12]: 19.2%; viability, T/C [13]: 107%; viability, T/C [14]: 95.7%; viability, T/C [15]: 67.8%; viability, T/C [16]: 50%; viability, T/C [17]: 30.8%; viability, T/C [18]: 18.5%; viability, T/C [19]: 103%; viability, T/C [20]: 81.3%; viability, T/C [21]: 60.7%; viability, T/C [22]: 47.9%; viability, T/C [23]: 28.9%; viability, T/C [24]: 19.6%; viability, T/C [25]: 106%; viability, T/C [26]: 87.2%; viability, T/C [27]: 59.7%; viability, T/C [28]: 35.1%; viability, T/C [29]: 24.1%; viability, T/C [30]: 20.6%; viability, T/C [31]: 86.7%; viability, T/C [32]: 65.5%; viability, T/C [33]: 53.7%; viability, T/C [34]: 32.5%; viability, T/C [35]: 21.7%; viability, T/C [36]: 21.1%

**Q.** Which results are given for CNCc1ccc(-c2[nH]c3cc(F)cc4c3c2CCNC4=O)cc1 + COC1C(OC(N)=O)C(O)C(Oc2ccc3c(O)c(NC(=O)c4ccc(O)c(CC=C(C)C)c4)c(=O)oc3c2C)OC1(C)C?
**A.** IC50 (second compound 0.0316 µM): > 10000 nM; IC50 (second compound 0.1 µM): > 10000 nM; IC50 (second compound 0.316 µM): > 10000 nM; IC50 (second compound 1 µM): > 10000 nM; IC50 (second compound 3.16 µM): > 10000 nM; IC50 (second compound 10 µM): > 10000 nM; viability, T/C [3]: 98.7%; viability, T/C [4]: 99.8%; viability, T/C [5]: 106%; viability, T/C [6]: 111%; viability, T/C [37]: 107%; viability, T/C [38]: 93.3%; viability, T/C [9]: 102%; viability, T/C [10]: 102%; viability, T/C [11]: 98.7%; viability, T/C [12]: 99.5%; viability, T/C [39]: 101%; viability, T/C [40]: 83.9%; viability, T/C [15]: 107%; viability, T/C [16]: 113%; viability, T/C [17]: 115%; viability, T/C [18]: 105%; viability, T/C [41]: 105%; viability, T/C [42]: 83.2%; viability, T/C [21]: 105%; viability, T/C [22]: 106%; viability, T/C [23]: 101%; viability, T/C [24]: 102%; viability, T/C [43]: 109%; viability, T/C [44]: 76.2%; viability, T/C [27]: 106%; viability, T/C [28]: 101%; viability, T/C [29]: 106%; viability, T/C [30]: 109%; viability, T/C [45]: 117%; viability, T/C [46]: 58.9%; viability, T/C [33]: 109%; viability, T/C [34]: 101%; viability, T/C [35]: 97.6%; viability, T/C [36]: 104%; viability, T/C [47]: 105%; viability, T/C [48]: 55%

**Q.** For O=C(c1cc(Cc2n[nH]c(=O)c3ccccc23)ccc1F)N1CCN(C(=O)C2CC2)CC1 + COC1C(OC(N)=O)C(O)C(Oc2ccc3c(O)c(NC(=O)c4ccc(O)c(CC=C(C)C)c4)c(=O)oc3c2C)OC1(C)C, which IC50 (second compound 0.0316 µM) is on record?
**A.** > 10000 nM

**Q.** What about the IC50 (second compound 0.1 µM) of the same molecule?
**A.** > 10000 nM

**Q.** What about the IC50 (second compound 0.316 µM) of the same molecule?
**A.** > 10000 nM

**Q.** And the IC50 (second compound 1 µM)?
**A.** > 10000 nM

**Q.** What about the IC50 (second compound 3.16 µM) of the same molecule?
**A.** > 10000 nM

**Q.** What about the IC50 (second compound 10 µM) of the same molecule?
**A.** > 10000 nM

**Q.** And the viability, T/C [3]?
**A.** 103%

**Q.** And the viability, T/C [4]?
**A.** 99.2%

**Q.** And the viability, T/C [5]?
**A.** 107%

**Q.** What about the viability, T/C [6] of the same molecule?
**A.** 105%

**Q.** And the viability, T/C [37]?
**A.** 109%

**Q.** What about the viability, T/C [38] of the same molecule?
**A.** 87.8%

**Q.** What about the viability, T/C [9] of the same molecule?
**A.** 102%

**Q.** What about the viability, T/C [10] of the same molecule?
**A.** 89%

**Q.** And the viability, T/C [11]?
**A.** 98.5%

**Q.** What about the viability, T/C [12] of the same molecule?
**A.** 99.8%

**Q.** And the viability, T/C [39]?
**A.** 110%

**Q.** What about the viability, T/C [40] of the same molecule?
**A.** 85.7%

**Q.** What about the viability, T/C [15] of the same molecule?
**A.** 102%

**Q.** And the viability, T/C [16]?
**A.** 113%

**Q.** And the viability, T/C [17]?
**A.** 103%

**Q.** And the viability, T/C [18]?
**A.** 101%

**Q.** And the viability, T/C [41]?
**A.** 109%

**Q.** And the viability, T/C [42]?
**A.** 98.2%

**Q.** And the viability, T/C [21]?
**A.** 107%

**Q.** What about the viability, T/C [22] of the same molecule?
**A.** 108%

**Q.** And the viability, T/C [23]?
**A.** 102%

**Q.** And the viability, T/C [24]?
**A.** 101%

**Q.** And the viability, T/C [43]?
**A.** 97%

**Q.** What about the viability, T/C [44] of the same molecule?
**A.** 93.4%

**Q.** And the viability, T/C [27]?
**A.** 99.6%

**Q.** What about the viability, T/C [28] of the same molecule?
**A.** 95%

**Q.** What about the viability, T/C [29] of the same molecule?
**A.** 96.7%

**Q.** What about the viability, T/C [30] of the same molecule?
**A.** 94.7%

**Q.** And the viability, T/C [45]?
**A.** 109%

**Q.** And the viability, T/C [46]?
**A.** 88.2%

**Q.** What about the viability, T/C [33] of the same molecule?
**A.** 104%

**Q.** And the viability, T/C [34]?
**A.** 94%

**Q.** And the viability, T/C [35]?
**A.** 106%

**Q.** And the viability, T/C [36]?
**A.** 105%

**Q.** What about the viability, T/C [47] of the same molecule?
**A.** 95.1%

**Q.** What about the viability, T/C [48] of the same molecule?
**A.** 84.5%
